The record followed here is US7250442B2, “Dihydroindol-2-one derivatives as steroid hormone nuclear receptor modulators” (Eli Lilly and Company, priority 2003, dated 2007).

Molecules are shown by their SMILES.

The assay deals with T1, human MR (Homo sapiens, UniProt P08235).
T1 construct: The full length human MR gene is cloned from a human kidney or human brain cDNA library; made in house; host or cells: Sf9 insect cells (baculovirus, pAcHLT transfer vector)
T1 sequence (P08235 1-984): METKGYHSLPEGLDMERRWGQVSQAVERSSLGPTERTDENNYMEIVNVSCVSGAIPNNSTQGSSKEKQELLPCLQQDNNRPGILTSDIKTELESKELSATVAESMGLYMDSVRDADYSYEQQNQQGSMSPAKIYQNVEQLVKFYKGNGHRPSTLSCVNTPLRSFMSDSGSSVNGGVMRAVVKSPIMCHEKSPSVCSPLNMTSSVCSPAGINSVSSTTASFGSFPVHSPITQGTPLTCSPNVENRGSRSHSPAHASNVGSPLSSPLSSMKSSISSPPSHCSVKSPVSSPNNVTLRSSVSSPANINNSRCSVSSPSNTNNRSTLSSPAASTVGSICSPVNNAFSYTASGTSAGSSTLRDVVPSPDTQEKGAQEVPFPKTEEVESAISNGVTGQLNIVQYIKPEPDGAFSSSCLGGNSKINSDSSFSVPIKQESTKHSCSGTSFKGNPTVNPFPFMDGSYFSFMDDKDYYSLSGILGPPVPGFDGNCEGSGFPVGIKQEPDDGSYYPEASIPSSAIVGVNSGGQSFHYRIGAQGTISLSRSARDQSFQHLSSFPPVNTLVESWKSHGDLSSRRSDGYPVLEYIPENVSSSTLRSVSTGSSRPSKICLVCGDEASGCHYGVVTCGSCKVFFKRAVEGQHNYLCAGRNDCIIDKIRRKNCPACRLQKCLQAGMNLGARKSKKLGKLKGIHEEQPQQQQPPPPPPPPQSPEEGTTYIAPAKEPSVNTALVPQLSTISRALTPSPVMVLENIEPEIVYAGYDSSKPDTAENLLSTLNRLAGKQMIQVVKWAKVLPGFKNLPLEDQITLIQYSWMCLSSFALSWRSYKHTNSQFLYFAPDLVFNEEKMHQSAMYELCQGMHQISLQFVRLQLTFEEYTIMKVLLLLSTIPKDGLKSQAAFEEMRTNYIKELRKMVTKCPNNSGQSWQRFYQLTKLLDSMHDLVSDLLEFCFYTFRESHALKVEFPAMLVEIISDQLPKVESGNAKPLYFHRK
The experiment in a line: Mineralocorticoid Receptor Binding Assay ([3H]-aldosterone displacement). Particulars: full length human MR expressed in Sf9 cells, 0.5 nM [3H]-aldosterone. An outline of the steps:
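Full-length human MR expressed in Sf9 cells; lysate (20-25 μg protein) incubated with 0.5 nM [3H]-aldosterone and test compound in molybdate/Tris/phosphate/glycerol buffer pH 7.5, 16 h at 4 °C. Bound ligand measured by filtration and scintillation counting; IC50 converted to Ki via Cheng-Prusoff.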

In turn, `Cc1cc(C2(c3cc(C)c(O)c(C)c3)C(=O)N(Cc3ccc(F)cc3)c3ccccc32)cc(C)c1O` [Example 2] gave a Ki of at most 500 nM. Under `Cc1cc(C2(c3cc(C)c(O)c(C)c3)C(=O)N(Cc3ccc(C(C)(C)C)cc3)c3ccccc32)cc(C)c1O` [Example 7, 1-(4-tert-Butyl-benzyl)-3,3-bis-(4-hydroxy-3,5-dimethyl-phenyl)-1,3-dihydro-indol-2-one] stands at most 500 nM.

Turning to `Cc1cc(C2(c3cc(C)c(O)c(C)c3)C(=O)N(Cc3cccc4ccccc34)c3ccccc32)cc(C)c1O` [Example 10, 3,3-Bis-(4-hydroxy-3,5-dimethyl-phenyl)-1-naphthalen-1-ylmethyl-1,3-dihydro-indol-2-one], the Ki is at most 500 nM.

Turning to `COc1ccc2c(c1)C(c1cc(C)c(O)c(C)c1)(c1cc(C)c(O)c(C)c1)C(=O)N2Cc1ccccc1` [Example 16, 1-Benzyl-3,3-bis-(4-hydroxy-3,5-dimethyl-phenyl)-5-methoxy-1,3-dihydro-indol-2-one], the Ki was at most 500 nM.

Turning to `Cc1cc(C2(c3ccc(O)cc3)C(=O)N(Cc3ccccc3)c3ccccc32)cc(C)c1O` (stereo not shown) [Example 29, 1-Benzyl-3-(4-hydroxy-3,5-dimethyl-phenyl)-3-(4-hydroxy-phenyl)-1,3-dihydro-indol-2-one], the inhibition constant Ki is at most 500 nM.

`COc1ccccc1C(=O)CN1C(=O)C(c2cc(C)c(O)c(C)c2)(c2cc(C)c(O)c(C)c2)c2ccccc21` [Example 44, 3,3-Bis-(4-hydroxy-3,5-dimethyl-phenyl)-1-[2-(2-methoxy-phenyl)-2-oxo-ethyl]-1,3-dihydro-indol-2-one] returned an inhibitory constant (Ki) of at most 500 nM. The same measure for `COc1cccc(C(=O)CN2C(=O)C(c3cc(C)c(O)c(C)c3)(c3cc(C)c(O)c(C)c3)c3ccccc32)c1` [Example 45, 3,3-Bis-(4-hydroxy-3,5-dimethyl-phenyl)-1-[2-(3-methoxy-phenyl)-2-oxo-ethyl]-1,3-dihydro-indol-2-one]: at most 500 nM; for `COc1ccc(C(=O)CN2C(=O)C(c3cc(C)c(O)c(C)c3)(c3cc(C)c(O)c(C)c3)c3ccccc32)cc1` [Example 46, 3,3-Bis-(4-hydroxy-3,5-dimethyl-phenyl)-1-[2-(4-methoxy-phenyl)-2-oxo-ethyl]-1,3-dihydro-indol-2-one]: at most 500 nM. Under `COc1ccc(OC)c(C(=O)CN2C(=O)C(c3cc(C)c(O)c(C)c3)(c3cc(C)c(O)c(C)c3)c3ccccc32)c1` [Example 49, 1-[2-(2,5-Dimethoxy-phenyl)-2-oxo-ethyl]-3,3-bis-(4-hydroxy-3,5-dimethyl-phenyl)-1,3-dihydro-indol-2-one] stands at most 500 nM.

The compound `Cc1cc(C2(c3cc(C)c(O)c(C)c3)C(=O)N(Cc3ccccc3C#N)c3ccccc32)cc(C)c1O` [Example 51, 2-[3,3-Bis-(4-hydroxy-3,5-dimethyl-phenyl)-2-oxo-2,3-dihydro-indol-1-ylmethyl]-benzonitrile] gave a Ki of at most 500 nM. Consider `Cc1cc(C2(c3cc(C)c(O)c(C)c3)C(=O)N(Cc3ccc(Cl)c(Cl)c3)c3ccccc32)cc(C)c1O` [Example 52, 1-(3,4-Dichloro-benzyl)-3,3-bis-(4-hydroxy-3,5-dimethyl-phenyl)-1,3-dihydro-indol-2-one], for which the Ki was at most 500 nM. Under `COC(=O)c1cccc(CN2C(=O)C(c3cc(C)c(O)c(C)c3)(c3cc(C)c(O)c(C)c3)c3ccccc32)c1` [Example 55, 3-[3,3-Bis-(4-hydroxy-3,5-dimethyl-phenyl)-2-oxo-2,3-dihydro-indol-1-ylmethyl]-benzoic acid methyl ester] stands at most 500 nM. Under `Cc1cc(C2(c3cc(C)c(O)c(C)c3)C(=O)N(Cc3ccc(C(F)(F)F)cc3)c3ccccc32)cc(C)c1O` [Example 57, 3,3-Bis-(4-hydroxy-3,5-dimethyl-phenyl)-1-(4-trifluoromethyl-benzyl)-1,3-dihydro-indol-2-one] stands at most 500 nM. Under `Cc1cc(C2(c3cc(C)c(O)c(C)c3)C(=O)N(Cc3cccc(Cl)c3)c3ccccc32)cc(C)c1O` [Example 60, 1-(3-Chloro-benzyl)-3,3-bis-(4-hydroxy-3,5-dimethyl-phenyl)-1,3-dihydro-indol-2-one] stands at most 500 nM; under `Cc1cc(C2(c3cc(C)c(O)c(C)c3)C(=O)N(Cc3cccc(C(F)(F)F)c3)c3ccccc32)cc(C)c1O` [Example 61, 3,3-Bis-(4-hydroxy-3,5-dimethyl-phenyl)-1-(3-trifluoromethyl-benzyl)-1,3-dihydro-indol-2-one], at most 500 nM. In the case of `Cc1cc(C2(c3cc(C)c(O)c(C)c3)C(=O)N(Cc3ccc(Br)cc3F)c3ccccc32)cc(C)c1O` [Example 81, 1-(4-Bromo-2-fluoro-benzyl)-3,3-bis-(4-hydroxy-3,5-dimethyl-phenyl)-1,3-dihydro-indol-2-one], the inhibitory constant (Ki) was at most 500 nM. `Cc1cc(C2(c3cc(C)c(O)c(C)c3)C(=O)N(Cc3ccc(O)cc3)c3ccccc32)cc(C)c1O` [Example 88, 1-(4-Hydroxy-benzyl)-3,3-bis-(4-hydroxy-3,5-dimethyl-phenyl)-1,3-dihydro-indol-2-one] yielded a Ki of at most 500 nM. The same measure for `Cc1nc(CN2C(=O)C(c3cc(C)c(O)c(C)c3)(c3cc(C)c(O)c(C)c3)c3ccccc32)cs1` [Example 89, 3,3-Bis-(4-hydroxy-3,5-dimethyl-phenyl)-1-(2-methyl-thiazol-4-ylmethyl)-1,3-dihydro-indol-2-one]: at most 500 nM. Under `Cc1ccc2c(c1)C(c1cc(C)c(O)c(C)c1)(c1cc(C)c(O)c(C)c1)C(=O)N2Cc1csc(C)n1` [Example 93, 3,3-Bis-(4-hydroxy-3,5-dimethyl-phenyl)-5-methyl-1-(2-methyl-thiazol-4-ylmethyl)-1,3-dihydro-indol-2-one] stands at most 500 nM. The same measure for `Cc1cc(C2(c3cc(C)c(O)c(C)c3)C(=O)N(Cc3ccccn3)c3ccccc32)cc(C)c1O` [Example 100, 3,3-Bis-(4-hydroxy-3,5-dimethyl-phenyl)-1-pyridin-2-ylmethyl-1,3-dihydro-indol-2-one]: at most 500 nM; for `Cc1cc(C2(c3cc(C)c(O)c(C)c3)C(=O)N(CC3CC3)c3ccccc32)cc(C)c1O` [Example 105, 1-Cyclopropylmethyl-3,3-bis-(4-hydroxy-3,5-dimethyl-phenyl)-1,3-dihydro-indol-2-one]: at most 500 nM; for `Cc1cc(C2(c3cc(C)c(O)c(C)c3)C(=O)N(Cc3c(C)cccc3C)c3ccccc32)cc(C)c1O` [Example 107, 1-(2,6-Dimethyl-benzyl)-3,3-bis-(4-hydroxy-3,5-dimethyl-phenyl)-1,3-dihydro-indol-2-one]: at most 500 nM. As for `Cc1cc(C2(c3cc(C)c(O)c(C)c3)C(=O)N(Cc3cc(C(F)(F)F)ccc3F)c3ccccc32)cc(C)c1O` [Example 112, 1-(2-Fluoro-5-trifluoromethyl-benzyl)-3,3-bis-(4-hydroxy-3,5-dimethyl-phenyl)-1,3-dihydro-indol-2-one], the Ki was at most 500 nM. For the compound `Cc1cc(C2(c3cc(C)c(O)c(C)c3)C(=O)N(C3CCCC3)c3ccccc32)cc(C)c1O` [Example 114, 1-Cyclopentyl-3,3-bis-(4-hydroxy-3,5-dimethyl-phenyl)-1,3-dihydro-indol-2-one], the Ki was at most 500 nM. Under `Cc1cc(C2(c3cc(C)c(O)c(C)c3)C(=O)N(Cc3ccc(N)cc3)c3ccccc32)cc(C)c1O` [Example 117, 11-(4-Amino-benzyl)-3,3-bis-(4-hydroxy-3,5-dimethyl-phenyl)-1,3-dihydro-indol-2-one] stands at most 500 nM. For `Cc1cc(C2(c3cc(C)c(O)c(C)c3)C(=O)N(Cc3cccc(N)c3)c3ccccc32)cc(C)c1O` [Example 118, 1-(3-Amino-benzyl)-3,3-bis-(4-hydroxy-3,5-dimethyl-phenyl)-1,3-dihydro-indol-2-one], the Ki is at most 500 nM. Under `Cc1cc(C2(c3cc(C)c(O)c(C)c3)C(=O)N(CCc3scnc3C)c3ccccc32)cc(C)c1O` [Example 121, 3,3-Bis-(4-hydroxy-3,5-dimethyl-phenyl)-1-[2-(4-methyl-thiazol-5-yl)-ethyl]-1,3-dihydro-indol-2-one] stands at most 500 nM; under `COc1ccc(N2C(=O)C(c3cc(C)c(O)c(C)c3)(c3cc(C)c(O)c(C)c3)c3ccccc32)cc1` [Example 128, 3,3-Bis-(4-hydroxy-3,5-dimethyl-phenyl)-1-(4-methoxy-phenyl)-1,3-dihydro-indol-2-one], at most 500 nM.

As usually defined, the Ki is a dissociation constant, usually derived from enzyme kinetics or from competition with a known ligand. A low value points to higher affinity.
